According to article PMC7878489, “Gene delivery corrects N-acetylglutamate synthase deficiency and enables insights in the physiological impact of L-arginine activation of N-acetylglutamate synthase” (Scientific Reports, 2021):

Columns and labels:
mNAGS (mouse NAGS) = target: T1, mNAGS (mouse NAGS) (Mus musculus, UniProt Q8R4H7); experiment: NAGS specific activity; type: biochemical
T1 construct: appears to be tetramer
T1 sequence (Q8R4H7 51-527): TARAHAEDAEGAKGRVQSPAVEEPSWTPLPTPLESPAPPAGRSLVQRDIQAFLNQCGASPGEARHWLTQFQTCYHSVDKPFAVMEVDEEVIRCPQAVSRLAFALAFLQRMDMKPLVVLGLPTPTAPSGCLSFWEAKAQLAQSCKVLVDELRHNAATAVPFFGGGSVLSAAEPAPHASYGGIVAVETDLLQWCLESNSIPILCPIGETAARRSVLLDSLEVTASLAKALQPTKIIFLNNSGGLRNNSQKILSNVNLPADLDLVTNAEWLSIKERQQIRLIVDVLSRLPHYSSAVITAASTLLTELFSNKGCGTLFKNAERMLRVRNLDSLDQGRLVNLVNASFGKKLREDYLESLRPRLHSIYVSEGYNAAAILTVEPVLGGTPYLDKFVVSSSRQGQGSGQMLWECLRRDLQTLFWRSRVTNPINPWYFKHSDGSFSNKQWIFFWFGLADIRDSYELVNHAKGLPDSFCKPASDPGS

hNAGS (human NAGS) = target: T2, hNAGS (human NAGS) (Homo sapiens, UniProt Q8N159); experiment: NAGS specific activity; type: biochemical
T2 construct: appears to be tetramer
T2 sequence (Q8N159 51-534): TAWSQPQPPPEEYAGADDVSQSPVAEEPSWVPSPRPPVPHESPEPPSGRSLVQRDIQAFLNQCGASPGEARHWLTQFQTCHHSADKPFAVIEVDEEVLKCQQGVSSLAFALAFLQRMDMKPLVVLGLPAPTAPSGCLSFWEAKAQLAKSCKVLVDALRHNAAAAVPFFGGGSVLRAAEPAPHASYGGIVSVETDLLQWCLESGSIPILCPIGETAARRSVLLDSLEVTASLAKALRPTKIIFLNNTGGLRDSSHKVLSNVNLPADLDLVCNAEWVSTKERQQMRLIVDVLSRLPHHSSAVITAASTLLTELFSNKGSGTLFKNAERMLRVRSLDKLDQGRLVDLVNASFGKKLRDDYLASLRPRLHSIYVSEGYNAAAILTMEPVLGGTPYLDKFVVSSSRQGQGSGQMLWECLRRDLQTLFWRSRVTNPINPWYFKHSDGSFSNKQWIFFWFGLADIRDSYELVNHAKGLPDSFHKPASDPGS

Row | Structure (SMILES) | NAGS specific activity (mNAGS (mouse NAGS); co-substrate acetyl coenzyme A) | NAGS specific activity (hNAGS (human NAGS); co-substrate acetyl coenzyme A) | NAGS specific activity (mNAGS (mouse NAGS); co-substrate glutamate) | NAGS specific activity (hNAGS (human NAGS); co-substrate glutamate)
1 | N[C@@H](CCC(=O)O)C(=O)O [glutamate] | catalyzes formation of N-acetylglutamate (NAG) from glutamate and acetyl coenzyme A | catalyzes formation of N-acetylglutamate (NAG) from glutamate and acetyl coenzyme A |  | 
2 | CC(=O)SCCNC(=O)CCNC(=O)[C@H](O)C(C)(C)COP(=O)(O)OP(=O)(O)OC[C@H]1O[C@@H](n2cnc3c(N)ncnc32)[C@H](O)[C@@H]1OP(=O)(O)O [acetyl coenzyme A] |  |  | catalyzes formation of N-acetylglutamate (NAG) from glutamate and acetyl coenzyme A | catalyzes formation of N-acetylglutamate (NAG) from glutamate and acetyl coenzyme A
